From patent publication US7699801B2, “Advanced genetic vaccines” (priority 1995, dated 2010)

System: human carcino embryonic antigen (CEA)
Experiment: CEA-specific IgG1/IgG2a serum antibody ELISA after particle-mediated DNA immunization
Type: in vivo, mouse
Settings: Balb/c mice, sera four weeks after treatment
From the text: The adjuvant and the nucleic acid molecule containing the sequence encoding the antigen of interest were co-administered via particle-mediated delivery using a gene gun. The particular antigen used for this example was the human carcino embryonic antigen (“CEA”), a human tumor antigen widely used in experiments investigating cancer therapeutic treatments. […] Without an adjuvant, Th2 type CEA-specific antibodies (IgG1) are detected at levels more than twenty-fold higher than the levels of Th1 type CEA-specific antibodies (IgG2a) in Balb/c mice.
For this protocol, a plasmid construct containing a coding region for the CEA antigen under the control of the cytomegalovirus immediate early promoter (CMV) with the CMV intron A between the promoter and the coding region was used. To form the composition, 64 μg of the plasmid, which was designated WRG7083, in 120 μL of water was added to 32 milligrams of 0.9 micron gold beads in an Eppendorf tube, i.e., 2 μg DNA/mg gold. Next, 13.5 μL of ammonium acetate solution and 135 μL of isopropanol were added, and the tube was vortexed briefly. The mixture was incubated for 15 minutes at −20° C. to precipitate the DNA onto the gold. The DNA coated beads were pelleted by a ten second spin and the supernatants were removed. The gold/DNA pellets were washed four times by vortexing in 1 mL ethanol, microfuging ten seconds, and removing supernatants. […]

Sequence of human carcino embryonic antigen (CEA) (P06731 35-676): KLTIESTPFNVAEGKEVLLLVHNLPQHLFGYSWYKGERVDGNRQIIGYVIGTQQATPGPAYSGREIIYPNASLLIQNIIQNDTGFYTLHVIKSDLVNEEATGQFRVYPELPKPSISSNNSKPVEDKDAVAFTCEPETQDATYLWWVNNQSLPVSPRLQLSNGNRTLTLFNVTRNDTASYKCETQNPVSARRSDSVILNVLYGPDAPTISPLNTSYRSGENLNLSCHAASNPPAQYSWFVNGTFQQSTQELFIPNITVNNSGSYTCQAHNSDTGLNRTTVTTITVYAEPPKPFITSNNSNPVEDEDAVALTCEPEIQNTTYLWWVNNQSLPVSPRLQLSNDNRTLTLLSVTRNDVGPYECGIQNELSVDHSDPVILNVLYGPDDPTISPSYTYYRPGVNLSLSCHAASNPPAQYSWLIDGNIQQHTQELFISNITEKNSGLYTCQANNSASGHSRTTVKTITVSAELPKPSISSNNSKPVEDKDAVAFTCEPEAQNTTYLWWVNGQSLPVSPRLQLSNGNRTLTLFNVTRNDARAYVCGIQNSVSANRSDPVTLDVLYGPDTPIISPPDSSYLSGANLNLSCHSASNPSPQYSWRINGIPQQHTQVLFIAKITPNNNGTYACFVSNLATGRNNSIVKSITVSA

With monophosphoryl lipid A [MPL] the “ratio of IgG1 to IgG2a CEA-specific antibodies” value (0.2 mg/mL MPL on WRG7083 DNA-coated gold particles, gene gun delivery) was 4.5 and the “ratio of IgG1 to IgG2a CEA-specific antibodies” value (MPL stock swabbed on skin prior to gene gun delivery of WRG7083 DNA) was “about 4.0”.
